Tested on: ARPE-19 cells
Assay: Chemosensitivity (MTT cell viability) assay, noncancerous ARPE-19
Assay type: cell-based, human
Details: ARPE-19 noncancerous, 96 h, n = 9
Description: The cytotoxicity of the compounds against the cancer cell lines was also compared to the noncancerous retinal epithelial cell line, ARPE-19, to determine the possibility of cancer cell selectivity. […]
All cytotoxicity assays were conducted using human cell lines: breast adenocarcinomas (MDA-MB-231 and MCF-7), pancreatic carcinoma (MIA PaCa-2) and non-cancerous epithelial retinal (ARPE-19) cell lines. All cell lines were routinely maintained as monolayer cultures in appropriate complete media:
MCF-7, MIA PaCa-2 and ARPE-19 in high glucose DMEM and MDA-MB-231 in RPMI-1640, and both media were supplemented with 10% FBS, 1 mM sodium pyruvate, 2 mM L-glutamine, and 1% pen-strep. All cells were initially grown in T-25 or T-75 flasks at 37 °C and 5% CO2. Before chemosensitivity studies, cell monolayers were passaged using trypsin-EDTA (0.05%) and diluted to a concentration of 1 x 10^4 cells/mL (or 4 x 10^4 cells mL for 24 h assays). All assays were conducted in 96-well plates, in which 100 µL of the cell suspension was added for 24 h at 37 °C and 5% CO2, and then 100 µL of compound/medium dilutions for a further 96 h (or 24 h). All compound stocks were made using sterile DMSO at 100 mM before dilution, and a maximum of 0.1% DMSO was used in each assay. After incubation, 3-(4,5-dimethylthiazol-2-yl)-2,5-diphenyltetrazolium bromide (20 µL, 5 mg/mL in PBS) was added to each well and incubated for 3 h at 37°C and 5% CO2. All solutions were then aspirated, DMSO (150 µL) added to each well, gently mixed, and the absorbance was measured at 540 nm using a ClarioStar spectrophotometer microplate reader. Results were plotted on a logarithmic scale, and the half maximal inhibitory concentration (IC50) was determined from a triplicate of triplicate repeats (n = 9) and reported as an IC 50 ± Standard Deviation (SD).

## [Cp*Ir(C16H14NO)(PTA)](PF6) [Compound 1]
  IC50: 10.4 ± 0.7 µM
